Laboratory results as given in ChEMBL document CHEMBL1157533 (J Med Chem, 2008).

Key:
[1] = target: Beta-2 adrenergic receptor (Homo sapiens, UniProt P07550); test: Agonist activity at human recombinant beta2 adrenergic receptor expressed in CHO cells assessed as cAMP accumulation by enzyme immuno assay; type: functional, cell-based
Rattus norvegicus [2] = test: Bioavailability in rat at 0.34 mg/kg, po by cassette assay; type: ADME, organism-based; conditions: in vivo
[3] = Bioavailability in monkey at 0.32 mg/kg, po by cassette assay; type: ADME, organism-based, Macaca mulatta; conditions: rhesus monkey, in vivo
[4] = Terminal half life in dog at 0.1 mg/kg, iv; type: ADME, organism-based, Canis lupus familiaris; design: dose 0.1 mg/kg, route intravenous; conditions: in vivo, read-out: beta t1/2 (converted)
[5] = Total clearance in dog at 0.1 mg/kg, iv; type: ADME, organism-based, Canis lupus familiaris; design: dose 0.1 mg/kg, route intravenous; conditions: in vivo
Canis familiaris = species: Canis familiaris; test: cells; conditions: Canis lupus familiaris, 3 h
Description: Inhibition of carbachol-induced increase in intravesical pressure in intraduodenally dosed Beagle dog OAB model for 180 mins

[6] = Total clearance in rat at 0.34 mg/kg, iv by cassette assay; type: ADME, organism-based; design: dose 0.34 mg/kg, route intravenous; conditions: in vivo
[7] = Cmax in monkey at 0.32 mg/kg, po by cassette assay; type: ADME, organism-based, Macaca mulatta; design: dose 0.32 mg/kg, route oral; conditions: rhesus monkey, in vivo
[8] = AUC (0 to 24 hrs) in dog at 0.1 mg/kg, po; type: ADME, organism-based, Canis lupus familiaris; design: time < 24 hr, dose 0.1 mg/kg, route oral; conditions: plasma
[9] = Total clearance in monkey at 0.32 mg/kg, iv by cassette assay; type: ADME, organism-based, Macaca mulatta; design: dose 0.32 mg/kg, route intravenous; conditions: rhesus monkey, in vivo
[10] = Protein binding in Beagle dog serum; type: ADME, cell-free, Canis lupus familiaris; conditions: read-out: PPB (converted)
[11] = target: Beta-3 adrenergic receptor (Canis lupus familiaris, UniProt O02662); test: Agonist activity at dog recombinant beta3 adrenergic receptor expressed in CHO cells assessed as cAMP accumulation by enzyme immuno assay; type: functional, cell-based
[12] = target: Beta-1 adrenergic receptor (Homo sapiens, UniProt P08588); test: Agonist activity at human recombinant beta-1 adrenergic receptor expressed in CHO cells assessed as cAMP accumulation by enzyme immuno assay; type: functional, cell-based
[13] = Bioavailability in dog at 0.1 mg/kg, po; type: ADME, organism-based, Canis lupus familiaris; conditions: in vivo
[14] = Cmax in rat at 0.34 mg/kg, po by cassette assay; type: ADME, organism-based; design: dose 0.34 mg/kg, route oral; conditions: in vivo
Rattus norvegicus [15] = test: Terminal half life in rat at 0.34 mg/kg, iv by cassette assay; type: ADME, organism-based; design: dose 0.34 mg/kg, route intravenous; conditions: in vivo
[16] = Terminal half life in monkey plasma at 0.32 mg/kg, iv by cassette assay; type: ADME, organism-based, Macaca mulatta; design: dose 0.32 mg/kg, route intravenous; conditions: rhesus monkey, read-out: beta t1/2 (converted)
[17] = AUC (0 to 24 hrs) in rat at 0.34 mg/kg, po by cassette assay; type: ADME, organism-based; design: time < 24 hr, dose 0.34 mg/kg, route oral; conditions: plasma
[18] = Cmax in dog at 0.1 mg/kg, po; type: ADME, organism-based, Canis lupus familiaris; design: dose 0.1 mg/kg, route oral; conditions: in vivo
[19] = AUC (0 to 24 hrs) in monkey at 0.32 mg/kg, po by cassette assay; type: ADME, organism-based, Macaca mulatta; design: time < 24 hr, dose 0.32 mg/kg, route oral; conditions: rhesus monkey, plasma
[20] = target: Beta-3 adrenergic receptor (Homo sapiens, UniProt P13945); test: Agonist activity at human recombinant beta3 adrenergic receptor expressed in CHO cells assessed as cAMP accumulation by enzyme immuno assay; type: functional, cell-based
[21] = Terminal half life in monkey plasma at 0.28 mg/kg, iv by cassette assay; type: ADME, organism-based, Macaca mulatta; design: dose 0.28 mg/kg, route intravenous; conditions: rhesus monkey, read-out: beta t1/2 (converted)
[22] = AUC (0 to 24 hrs) in dog at 0.32 mg/kg, po; type: ADME, organism-based, Canis lupus familiaris; design: time < 24 hr, dose 0.32 mg/kg, route oral; conditions: plasma
[23] = Cmax in rat at 0.26 mg/kg, po by cassette assay; type: ADME, organism-based; design: dose 0.26 mg/kg, route oral; conditions: in vivo
[24] = Bioavailability in dog at 0.32 mg/kg, po; type: ADME, organism-based, Canis lupus familiaris; conditions: in vivo
[25] = Cmax in dog at 0.32 mg/kg, po; type: ADME, organism-based, Canis lupus familiaris; design: dose 0.32 mg/kg, route oral; conditions: in vivo
[26] = Cmax in monkey at 0.28 mg/kg, po by cassette assay; type: ADME, organism-based, Macaca mulatta; design: dose 0.28 mg/kg, route oral; conditions: rhesus monkey, in vivo
[27] = Bioavailability in rat at 0.26 mg/kg, po by cassette assay; type: ADME, organism-based; conditions: in vivo
[28] = Bioavailability in monkey at 0.28 mg/kg, po by cassette assay; type: ADME, organism-based, Macaca mulatta; conditions: rhesus monkey, in vivo
[29] = AUC (0 to 24 hrs) in monkey at 0.28 mg/kg, po by cassette assay; type: ADME, organism-based, Macaca mulatta; design: time < 24 hr, dose 0.28 mg/kg, route oral; conditions: rhesus monkey, plasma
[30] = Total clearance in dog at 0.32 mg/kg, iv; type: ADME, organism-based, Canis lupus familiaris; design: dose 0.32 mg/kg, route intravenous; conditions: in vivo
[31] = Terminal half life in rat plasma at 0.26 mg/kg, iv by cassette assay; type: ADME, organism-based; design: dose 0.26 mg/kg, route intravenous; conditions: read-out: beta t1/2 (converted)
[32] = AUC (0 to 24 hrs) in rat at 0.26 mg/kg, po by cassette assay; type: ADME, organism-based; design: time < 24 hr, dose 0.26 mg/kg, route oral; conditions: plasma
[33] = Total clearance in rat at 0.26 mg/kg, iv by cassette assay; type: ADME, organism-based; design: dose 0.26 mg/kg, route intravenous; conditions: in vivo
[34] = Total clearance in monkey at 0.28 mg/kg, iv by cassette assay; type: ADME, organism-based, Macaca mulatta; design: dose 0.28 mg/kg, route intravenous; conditions: rhesus monkey, in vivo
[35] = Bioavailability in dog; type: ADME, organism-based, Canis lupus familiaris; conditions: in vivo
[36] = Cmax in dog at 0.1 mg/kg, po by cassette assay; type: ADME, organism-based, Canis lupus familiaris; design: dose 0.1 mg/kg, route oral; conditions: in vivo
[37] = Bioavailability in dog at 0.1 mg/kg, po by cassette assay; type: ADME, organism-based, Canis lupus familiaris; conditions: in vivo
[38] = Total clearance in dog at 0.1 mg/kg, iv by cassette assay; type: ADME, organism-based, Canis lupus familiaris; design: dose 0.1 mg/kg, route intravenous; conditions: in vivo
[39] = AUC (0 to 24 hrs) in dog at 0.1 mg/kg, po by cassette assay; type: ADME, organism-based, Canis lupus familiaris; design: time < 24 hr, dose 0.1 mg/kg, route oral; conditions: plasma
[40] = Terminal half life in dog at 0.1 mg/kg, iv by cassette assay; type: ADME, organism-based, Canis lupus familiaris; design: dose 0.1 mg/kg, route intravenous; conditions: in vivo, read-out: beta t1/2 (converted)
[41] = Total clearance in monkey at 0.30 mg/kg, iv by cassette assay; type: ADME, organism-based, Macaca mulatta; design: dose 0.3 mg/kg, route intravenous; conditions: rhesus monkey, in vivo, 0.3 mg/kg
[42] = Bioavailability in monkey at 0.30 mg/kg, po by cassette assay; type: ADME, organism-based, Macaca mulatta; conditions: rhesus monkey, in vivo, 0.3 mg/kg
[43] = AUC (0 to 24 hrs) in monkey at 0.30 mg/kg, po by cassette assay; type: ADME, organism-based, Macaca mulatta; design: time < 24 hr, dose 0.3 mg/kg, route oral; conditions: rhesus monkey, plasma, 0.3 mg/kg
[44] = Cmax in monkey at 0.30 mg/kg, po by cassette assay; type: ADME, organism-based, Macaca mulatta; design: dose 0.3 mg/kg, route oral; conditions: rhesus monkey, in vivo, 0.3 mg/kg

Sequence of Beta-3 adrenergic receptor (Canis lupus familiaris, UniProt O02662) (O02662 whole entry): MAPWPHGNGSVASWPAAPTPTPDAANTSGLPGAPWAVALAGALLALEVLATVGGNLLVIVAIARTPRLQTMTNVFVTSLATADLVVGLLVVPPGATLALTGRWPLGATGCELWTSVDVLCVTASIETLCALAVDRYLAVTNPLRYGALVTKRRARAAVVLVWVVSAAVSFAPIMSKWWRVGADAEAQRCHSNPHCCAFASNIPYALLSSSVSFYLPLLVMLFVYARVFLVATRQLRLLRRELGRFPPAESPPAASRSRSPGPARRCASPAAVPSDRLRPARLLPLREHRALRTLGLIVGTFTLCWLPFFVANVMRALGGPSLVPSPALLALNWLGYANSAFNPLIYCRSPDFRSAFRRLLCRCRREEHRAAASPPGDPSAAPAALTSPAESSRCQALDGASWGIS
Sequence of Beta-2 adrenergic receptor (P07550 whole entry): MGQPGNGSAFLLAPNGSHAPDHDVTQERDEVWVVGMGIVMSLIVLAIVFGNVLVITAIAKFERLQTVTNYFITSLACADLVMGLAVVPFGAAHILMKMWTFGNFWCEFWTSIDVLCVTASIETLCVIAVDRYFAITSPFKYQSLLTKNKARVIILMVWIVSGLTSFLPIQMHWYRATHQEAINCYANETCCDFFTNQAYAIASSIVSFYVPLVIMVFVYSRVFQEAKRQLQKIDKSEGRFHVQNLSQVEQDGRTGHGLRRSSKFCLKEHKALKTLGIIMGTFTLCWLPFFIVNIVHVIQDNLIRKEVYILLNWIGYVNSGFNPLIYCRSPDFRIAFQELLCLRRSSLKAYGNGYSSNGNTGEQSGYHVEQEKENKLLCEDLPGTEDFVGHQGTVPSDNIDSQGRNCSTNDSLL
Sequence of Beta-1 adrenergic receptor (P08588 whole entry): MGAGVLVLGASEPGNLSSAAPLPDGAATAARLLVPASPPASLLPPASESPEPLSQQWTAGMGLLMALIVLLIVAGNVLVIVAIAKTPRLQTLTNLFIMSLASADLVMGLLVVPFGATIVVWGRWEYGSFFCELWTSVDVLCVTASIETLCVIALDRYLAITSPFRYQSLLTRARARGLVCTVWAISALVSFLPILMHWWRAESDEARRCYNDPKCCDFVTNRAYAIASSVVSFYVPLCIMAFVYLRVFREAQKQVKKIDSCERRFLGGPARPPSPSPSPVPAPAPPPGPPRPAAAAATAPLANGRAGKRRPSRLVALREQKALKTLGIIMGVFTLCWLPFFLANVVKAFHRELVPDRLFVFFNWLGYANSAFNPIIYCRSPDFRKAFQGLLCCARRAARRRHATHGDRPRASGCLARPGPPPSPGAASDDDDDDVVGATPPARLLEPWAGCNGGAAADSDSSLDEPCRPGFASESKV
Sequence of Beta-3 adrenergic receptor (Homo sapiens, UniProt P13945) (P13945 whole entry): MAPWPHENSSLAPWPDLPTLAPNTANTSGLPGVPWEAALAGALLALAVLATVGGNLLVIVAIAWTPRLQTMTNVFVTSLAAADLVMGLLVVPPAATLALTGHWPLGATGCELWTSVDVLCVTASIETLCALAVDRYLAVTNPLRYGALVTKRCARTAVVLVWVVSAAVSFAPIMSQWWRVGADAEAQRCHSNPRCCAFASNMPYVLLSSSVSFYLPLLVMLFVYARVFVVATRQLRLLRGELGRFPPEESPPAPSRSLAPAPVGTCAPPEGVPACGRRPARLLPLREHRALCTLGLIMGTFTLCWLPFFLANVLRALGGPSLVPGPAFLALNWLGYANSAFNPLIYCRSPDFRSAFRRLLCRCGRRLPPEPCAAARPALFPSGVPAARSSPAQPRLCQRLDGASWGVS

Compound: CC(C)Oc1cc(-c2ccc(CCN[C@@H](C)[C@H](O)c3ccccc3)cc2)ccc1C(=O)O
- EC50 [1]: > 10 µM
- bioavailability (Rattus norvegicus [2]): 100%
- bioavailability [3]: 88.2%
- half-life [4]: 858 min
- clearance [5]: 7.3 mL/min/kg
- EC50 (Canis familiaris): 9.5 nM
- ED50 (Canis familiaris): 0.02 mg/kg
- clearance [6]: 6.8 mL/min/kg
- Cmax [7]: 178 ng/mL
- AUC(0-t) at 24 h [8]: 134 ng·h/mL
- clearance [9]: 2.5 mL/min/kg
- fraction unbound [10]: 0.14
- EC50 [11]: 3.7 nM
- EC50 [12]: 780 nM
- bioavailability [13]: 63.9%
- Cmax [14]: 125 ng/mL
- beta t1/2 (Rattus norvegicus [15]): 8.2 h
- half-life [16]: 1740 min
- AUC(0-t) at 24 h [17]: 880 ng·h/mL
- Cmax [18]: 7.4 ng/mL
- AUC(0-t) at 24 h [19]: 1800 ng·h/mL
- EC50 [20]: 0.81 nM

Compound: O=C(O)c1ccc(-c2ccc(CCNC[C@H](O)c3cccnc3)cc2)cc1OC1CCCCC1
- EC50 [1]: > 10 µM
- half-life [21]: 618 min
- AUC(0-t) at 24 h [22]: 58.1 ng·h/mL
- Cmax [23]: 72.4 ng/mL
- bioavailability [24]: 60%
- Cmax [25]: 11.4 ng/mL
- Cmax [26]: 18.6 ng/mL
- bioavailability [27]: 82.5%
- fraction unbound [10]: 0.1
- bioavailability [28]: 10.7%
- EC50 [11]: 1.3 nM
- EC50 [12]: 480 nM
- AUC(0-t) at 24 h [29]: 153 ng·h/mL
- clearance [30]: 47.7 mL/min/kg
- half-life [31]: 198 min
- AUC(0-t) at 24 h [32]: 245 ng·h/mL
- clearance [33]: 15.8 mL/min/kg
- clearance [34]: 3.4 mL/min/kg
- EC50 [20]: 0.26 nM

Compound: O=C(O)c1ccc(-c2ccc(CCNC[C@H](O)c3cccc(Cl)c3)cc2)cc1OC1CCCCC1
- bioavailability [35]: 0%

Compound: CC(C)Cc1cc(-c2ccc(OCCNC[C@H](O)c3ccc(N)nc3)cc2)ccc1C(=O)O
- Cmax [36]: 11.6 ng/mL
- bioavailability [37]: 34.8%
- clearance [38]: 14.2 mL/min/kg
- AUC(0-t) at 24 h [39]: 38.2 ng·h/mL
- EC50 [12]: 12 nM
- half-life [40]: 570 min
- EC50 [20]: 0.059 nM

Compound: CCCOc1cc(-c2ccc(C[C@@H](C)NC[C@H](O)c3cccnc3)cc2)ccc1C(=O)O
- clearance [41]: 47 mL/min/kg
- EC50 [1]: > 1 µM
- clearance [5]: 24.3 mL/min/kg
- EC50 (Canis familiaris): 0.28 nM
- ED50 (Canis familiaris): 0.0048 mg/kg
- bioavailability [42]: 57.2%
- AUC(0-t) at 24 h [8]: 35.5 ng·h/mL
- AUC(0-t) at 24 h [43]: 65.2 ng·h/mL
- fraction unbound [10]: 0.18
- EC50 [11]: 0.51 nM
- EC50 [12]: 190 nM
- bioavailability [13]: 54.9%
- Cmax [44]: 8.2 ng/mL
- Cmax [18]: 3 ng/mL
- EC50 [20]: 0.064 nM
